Data reported in patent US9149523B2, “Compositions and methods for treating cancer and neurodegenerative diseases” (Yeda Research and Development Co. Ltd., priority 2010, dated 2015).

Biological target: T1, DAPk WT (Homo sapiens, UniProt P53355)
T1 construct: Plasmids encoding N-terminal Flag and hemaglutinin (HA)-tagged human full-length DAPk (Flag-DAPk and HA-DAPk); made in house; host or cells: HEK 293T cells, transient transfection; anti-FLAG M2 immunoprecipitation, elution with FLAG peptide
T1 sequence (P53355 whole entry): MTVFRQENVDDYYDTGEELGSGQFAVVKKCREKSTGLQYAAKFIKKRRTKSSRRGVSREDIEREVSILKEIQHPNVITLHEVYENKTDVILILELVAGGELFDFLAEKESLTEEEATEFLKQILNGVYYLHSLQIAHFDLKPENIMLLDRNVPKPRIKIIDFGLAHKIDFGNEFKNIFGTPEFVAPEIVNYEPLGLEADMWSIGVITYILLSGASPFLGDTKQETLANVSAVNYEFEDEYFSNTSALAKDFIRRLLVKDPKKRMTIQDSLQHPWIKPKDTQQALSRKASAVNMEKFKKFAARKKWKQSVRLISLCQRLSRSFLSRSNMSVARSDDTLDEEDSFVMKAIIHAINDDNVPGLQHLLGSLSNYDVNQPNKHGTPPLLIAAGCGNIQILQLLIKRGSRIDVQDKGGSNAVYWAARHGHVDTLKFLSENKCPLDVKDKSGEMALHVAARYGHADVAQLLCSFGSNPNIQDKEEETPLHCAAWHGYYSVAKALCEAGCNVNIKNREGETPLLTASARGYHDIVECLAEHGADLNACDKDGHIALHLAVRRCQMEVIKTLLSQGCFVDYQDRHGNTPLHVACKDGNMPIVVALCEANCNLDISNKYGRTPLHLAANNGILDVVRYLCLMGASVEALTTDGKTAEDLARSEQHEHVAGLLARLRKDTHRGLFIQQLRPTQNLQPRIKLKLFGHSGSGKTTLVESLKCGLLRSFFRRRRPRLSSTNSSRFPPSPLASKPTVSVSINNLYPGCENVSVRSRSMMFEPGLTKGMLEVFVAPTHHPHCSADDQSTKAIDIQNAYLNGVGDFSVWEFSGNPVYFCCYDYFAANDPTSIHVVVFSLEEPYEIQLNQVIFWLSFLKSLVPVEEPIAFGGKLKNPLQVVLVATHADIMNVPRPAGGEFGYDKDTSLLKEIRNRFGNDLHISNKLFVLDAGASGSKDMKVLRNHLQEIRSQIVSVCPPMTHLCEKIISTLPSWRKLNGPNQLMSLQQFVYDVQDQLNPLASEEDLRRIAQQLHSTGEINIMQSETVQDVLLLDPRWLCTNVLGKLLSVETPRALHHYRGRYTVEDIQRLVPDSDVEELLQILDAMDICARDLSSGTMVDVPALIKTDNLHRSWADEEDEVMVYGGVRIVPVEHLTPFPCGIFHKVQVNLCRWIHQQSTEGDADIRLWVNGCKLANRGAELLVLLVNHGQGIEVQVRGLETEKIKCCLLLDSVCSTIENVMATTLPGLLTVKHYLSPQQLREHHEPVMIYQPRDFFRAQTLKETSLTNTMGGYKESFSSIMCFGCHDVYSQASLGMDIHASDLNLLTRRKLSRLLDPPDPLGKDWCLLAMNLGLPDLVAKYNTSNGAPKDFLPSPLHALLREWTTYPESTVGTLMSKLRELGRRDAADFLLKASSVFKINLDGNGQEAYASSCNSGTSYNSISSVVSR
Test: In vitro kinase assay (ELISA, hMLC Ser 19 phosphorylation)
Format: biochemical
Details: DAPk WT pre-incubated with GDP versus Gpp(NH)p (non-hydrolysable GTP analog); FIG. 4C
Experimental: Maxisorp™ multiwell polystyrene plates (Nunc, Langenselbold, Germany) were incubated at 4° C., overnight, with the indicated amounts of hMLC diluted in PBS. Plates were washed with PBST and blocked with 4% BSA (Sigma, City, State) diluted in PBS. The kinase reactions were then performed on the plate. Briefly, the wells were incubated with kinase buffer (50 mM Hepes, pH 7.5, 20 mM MgCl2, 0.1 mg/mL BSA, 50 mM β-glycerol phosphate, 50 μM ATP) containing 2.5 nM of the indicated enzyme, for 10 min. The reactions were stopped by addition of EDTA to final concentration of 25 mM. Plates were washed again with PBST and then incubated with rabbit anti MLC (Ser19) polyclonal antibody (Cell Signaling, Danvers, Mass.) at a 1:250 dilution in PBS. PBST wash was performed again and the plate incubated with HRP-conjugated goat anti rabbit IgG (Jackson ImmunoResearch, West Grove, Pa.). Detection was done with the HRP substrate ABTS. Where indicated the HRP read outs were plot using the Michaelis-Menten equation and the curves fit by the least squares method.
To determine the significance to DAPk's enzymatic activity of the ROC domain in general and of the GTP-binding in particular, in vitro kinase assays were performed. The assays were based on an ELISA format measuring phosphorylation of the DAPk substrate hMLC at Ser 19, using specific anti-phospho Ser19 antibodies. […]

Nc1nc2c(ncn2[C@@H]2O[C@H](COP(=O)(O)OP(=O)(O)O)[C@@H](O)[C@H]2O)c(=O)[nH]1 [GDP]
DAPk catalytic activity: increased catalytic activity
